Values of other authors, collected in US20100068291A1, “Oral Medicament Based on a Proton Pump Inhibitor” (FLAMEL TECHNOLOGIES, S.A., priority 2005, published 2010).

Conditions: in vivo

plasma half-life: 0.5-1 H
SMILES: COc1ccc2[nH]c([S+]([O-])Cc3ncc(C)c(OC)c3C)nc2c1 (stereo not shown) [omeprazole]
